In patent US20240299353A1, “COMPOSITIONS AND METHODS FOR TREATING […] 5-MEO-DMT” (Alvarius Pharmaceuticals Ltd., priority 2021, published 2024):

Tests used:
[1] = tested on: rats; assay: Elevated plus maze; type: in vivo
Procedure: In this instance the animals were 9 weeks old at the initiation of drug exposures and we selected just the high (20 mg/kg) dose of 5-MeO-DMT from the molecular study. […] Due to the number of behavioral paradigms to be completed by each animal we divided the study into two cohorts staggered by two weeks with 8 animals coming from each cohort to make up the 16 animals for each treatment group. 23 hours after 5-MeO-DMT administration the animals were introduced to the open field arena where they were allowed to freely explore the area for 5 mins. Following the open field test (OFT) animals were returned to their home cage for 2 hours before beginning either the elevated plus maze (EPM) or pre-pulse inhibition (PPI) testing. 24 hours after completing the OFT animals were returned to the chamber for the first session in novel object (NO1) testing. The animals were returned to their home cage for 2 hours before beginning the EPM or PPI test. 24 hours after NO1 the animals returned to the open field chamber for the second session in novel object (N02) testing. After completing N02 animals were returned to their home cage for 2 hours before they underwent the forced swim test (FST) pre-test. 24 hours later the animals were returned to the FS cylinders for the FST. Upon completion of the FST all animals were euthanized. A timeline of this experimental cohort is described in FIG. 8A.
The experiment was conducted as described for cohort 1 for the first 13 days of injections. There are a number of notable differences in experimental procedures between the two cohorts of animals to be highlighted. […] Finally, the dose of 5-MeO-DMT was reduced to 10 mg/kg. The order and timing of all the behavioral paradigms were kept constant between the cohorts. A timeline of this experimental cohort is described in FIG. 8B. Additionally, 5-MeO-DMT administrations were staggered so animals could be observed for the duration of acute drug effects and to ensure recovery prior to the next animal being injected. The typical symptoms of psychedelic drug administration outlined above were reproduced in all animals administered 5-MeO-DMT.
Our EPM apparatus consisted of a plus-shaped white plastic platform positioned 100 cm above the ground. Two opposite arms of the maze were bordered by vertical walls measuring 20 cm high, with the other two arms open to the environment with no edges. Animals were placed into the centre of the maze facing a closed arm and allowed to explore freely for 5 min. At the conclusion of the test, rats were returned to their home cages and the apparatus was cleaned with 2% distal. Animal movement was recorded during the trial using Any-Maze software. Time spent in open or closed arms, number of entries into open arms and number of grooming behaviors were all quantified (FIG. 10A-10B). Behavioral assessment was conducted in a quiet room under low-level red-light illumination. Behaviors were scored by two observers blind to experimental conditions.

[2] = tested on: primary hippocampal neurons; assay: Structural plasticity of cultured hippocampal neurons, Sholl analysis; type: cell-based, rat; conditions: for normalised AUC of the Sholl plot (dendritic arbor complexity): 24 h 5-MeO-DMT (20 μM) or cocaine (25 μM) alone, vs control; for maximum number of intersections (Nmax): FIG. 38C, all treatment groups
Description: Primary Culture—Primary hippocampal neurons were derived from the hippocampi of embryonic day 18 (E18) rat embryos, as described previously (Seibenhener, M. L. & M. W. Wooten (2012) Isolation and Culture of Hippocampal Neurons from Prenatal Mice. Journal of Visualized Experiments: JoVE, 3634). Briefly, the brains were removed from the skull and stored in cooled Hank's Balanced Salt Solution (HBSS). The hippocampus was isolated under a dissection microscope and digested using 0.05% Trypsin (Gibco) in HBSS for 10 mins after which trypsinisation was stopped by the addition of 2% foetal calf serum (Gibco). Isolated cells were suspended in plating media and viable cells were counted with a haemocytometer using trypan blue (Gibco) staining. Cells were plated at a density of 1×10^6 cells/well on 12-well plates coated with 0.02% Poly-DL-ornithine hydrobromide (Sigma). After plating, cells were incubated at 37° C. in humidified air with 5% C02. Half medium changes were performed every 2-3 days with L-glutamic acid no longer included in the media after 3 DIV.
Immunocytochemistry—Primary hippocampal neurons grown on 18 mm diameter glass coverslips were fixed in 70% ethanol (EtOH) for 20 mins. After fixing, cells were permeabilised in 0.2% Triton X-100 (Thermo Fisher) in PBS and washed in PBS. Cells were blocked in 1% BSA (Sigma) in PBS for 45 mins. Following blocking, cells were incubated with primary antibodies in 5% BSA and 5% normal goat serum (Agilent) for 2 hours in a humidity chamber at room temperature or overnight at 4° C. Cells were rinsed in PBS and incubated with 1 ug/ml 4′,6-Diamidine-2′-phenylindole dihydrochloride (DAPI) (Thermo Fisher) for 10 mins. Coverslips were mounted on microscope slides using mounting medium containing mowiol 4-88 (Sigma), stored in the dark at 4° C. and were imaged within 7 days of mounting. Images were captured on a Zeiss AxioImager M1 fluorescent microscope using a x40 oil immersion lens. 10 images were taken per coverslip and images were analyzed by a customized R script (Appendix I) using EBImage by Bioconductor Ver 3.7. Briefly, DAPI staining was used as a nuclear reference with a threshold of a minimal radius and fluorescent intensity implemented to differentiate DAPI-labelled nuclei against cell debris or non-specific binding. A watershed command in the R script was used to ensure segmentation and identification of nuclei which may be tightly clustered as distinct objects. The nuclei were dilated using kernel expansion to designate the soma region surrounding the nucleus. A distance map was generated for each image which calculates the distance of each foreground pixel (white) to the nearest background pixel (black). Protein expression was measured as the average pixel fluorescence intensity for each cell in each channel. In all experiments cells were stained with an antibody for NeuN, a protein specifically expressed in neurons, to localise protein changes to the neuronal or non-neuronal cellular populations in the culture. Proteins assessed by ICC were 5-HT1AR (FIG. 7A), 5-HT2AR (FIG. 7B).
Primary hippocampal cultures were grown on 18 mm glass coverslips at a density of 1×10^6 cells as described. On 3 DIV all cells underwent a full medium change. […] On 4 DIV, all cells underwent a second full medium change. Cells in the combination group were treated with 2 μM 5-MeO-DMT for a further 24 hours with all other groups beginning a 24-hour treatment. After treatment was completed the cells were fixed and processed as described below.
After termination of drug treatment coverslips were processed and imaged as outlined for immunocytochemistry. In all instances NeuN antibody staining was used to visualize projections from the cell body. Images were analyzed using the Simple Neurite Tracer and Sholl analysis plug-ins for ImageJ Fiji. For the Sholl analysis circle radii of 2 μm increments were used. All images were taken and analyzed by an experimenter blinded to treatment conditions. […]

[3] = cohort 1, either treatment or the combination
[4] = cohort 2, either treatment or their combination

SMILES | secondary anxiety measures, stretch-attenuated posture (SAP) or head dipping ([1]; cohort 1) | duration of time spent in the open arms [1, 3] | number of entries into the open arms [1, 3] | duration of time spent in the open arms ([1]; cohort 2, cocaine p=0.0031) | head dipping ([1]; cohort 2, cocaine p=0.0054, no post hoc differences) | number of entries into the open arms ([1]; cohort 2, cocaine p=0.0055) | total distance travelled [1, 4] | normalised AUC of the Sholl plot (dendritic arbor complexity) ([2]; FIG. 38B) | maximum number of intersections (Nmax) [2] | total distance travelled, main effect ([1]; cohort 1, 5-MeO-DMT p<0.0001) | total distance travelled ([1]; cohort 1, cocaine+20 mg/kg 5-MeO-DMT relative to cocaine alone) | duration of time spent on the open arms ([1]; cohort 2, cocaine and 5-MeO-DMT (10 mg/kg) combination relative to control and 5-MeO-DMT alone) | normalised AUC of the Sholl plot ([2]; FIG. 38B, 24 h cocaine followed by 24 h 5-MeO-DMT) | average neurite length ([2]; FIG. 38D, cocaine followed by 5-MeO-DMT)
COC(=O)[C@H]1[C@@H](OC(=O)c2ccccc2)C[C@@H]2CC[C@H]1N2C.Cl [cocaine, cocaine hydrochloride, reference compound] | no treatment effects | unaffected by either treatment or the combination | unaffected by either treatment or the combination | significantly affected | significantly affected | significantly affected | no effect of either treatment or their combination | increase dendritic arbor complexity | unchanged between treatment groups | – | – | – | – | –
COc1ccc2[nH]cc(CCN(C)C)c2c1 [5-MeO-DMT, 5-methoxy-N,N-dimethyltryptamine] | no treatment effects | unaffected by either treatment or the combination | unaffected by either treatment or the combination | – | – | – | no effect of either treatment or their combination | increase dendritic arbor complexity | unchanged between treatment groups | significant effect | reduction in the total distance travelled | significantly increased | increased the normalised AUC relative to either compound alone | significantly increased the average neurite length relative to both the control and cocaine alone treatment groups
